# Assay results published in PubChem BioAssay AID1508591.
# Conditions: rat; liver microsomes; pH 7.4; 15.0 min; 1.0 µM
row,half-life [min],Compound
1,5.6,O=S(=O)(Nc1ccc(-c2ccccc2)cc1)c1ccc(NCc2cccc(Cl)c2O)cc1
2,3.09,CC(C)Oc1cccc(-c2csc(N3CCC(C(N)=O)CC3)n2)c1
3,4.99,Oc1ccc(CNc2ccccc2C(F)(F)F)c2cccnc12
4,10.1,O=C(Nc1ccc2c(N3CCOCC3)ncnc2c1)c1cccc(Br)c1
5,> 30,CCCCn1cnc2cc(NC(=O)c3cc(OC)c(OC)c(OC)c3)ccc21
6,> 30,OC[C@H]1O[C@H](O[C@H]2O[C@H](CO)[C@@H](O)[C@H](O)[C@H]2O)[C@H](O)[C@@H](O)[C@@H]1O
7,2.21,CC(=O)c1cccc(-c2csc(N3CCC(C(N)=O)CC3)n2)c1
8,> 30,FC(F)(F)c1ccccc1-c1nc(NCc2ccc(Cl)cc2)c2ccccc2n1
9,22.5,O=C(NCCCn1ccnc1)c1ccc(-c2ncc3cnc(-c4cccc(F)c4)cn23)cc1
10,1.8,CCc1ccccc1OC[C@@H](O)CN[C@H]1CCCc2ccccc21
11,13,CN(C(=O)CSc1nc2c(c(=O)[nH]1)CCCC2)c1ccccc1
12,1.11,Cn1c(=O)c2c(-c3ccc(Cl)cc3)n(CCc3ccccc3)cc2n(C)c1=O
13,> 30,Cc1ccc(S(=O)(=O)Nc2cc(C(=O)Nc3nc(-c4ccccc4)cs3)ccn2)cc1
14,6.77,COc1ccccc1NC(=O)c1oc2ccccc2c1NC(=O)Cc1cccs1
15,1.8,CCOC(=O)c1[nH]c(C)c(CCC(=O)N2CCN(c3cc(Cl)ccc3C)CC2)c1C
16,1.12,Cc1ccc(NC(=O)C(Cc2ccccc2)NS(=O)(=O)c2cccs2)cc1Cl (stereo unspecified)
17,> 30,C[C@@H]1Cc2c([nH]c3cc(Cl)c(F)cc23)[C@]2(N1)C(=O)Nc1ccc(Cl)cc12
18,2.58,O=C(Nc1ncccc1O)c1ccc(S(=O)(=O)Nc2ccccc2)cc1
19,8.11,CN1CCN(C(=O)c2ccc3cc(CCNc4ncnc5ccc(C#N)cc45)ccc3c2)CC1

row,half-life [min],Compound
1,> 30,Fc1cc(Nc2nc(-c3ccncc3)nc3ccccc23)ccc1-c1cccc(OC(F)(F)F)c1
2,9.64,Cc1onc(-c2ccc(F)cc2)c1COc1ccc(C(=O)N2CCS(=O)(=O)CC2)cn1
3,1.85,COc1ccc2[nH]c(C[C@@H]3C[C@@H](C(C)C)[C@H](CNCc4ccccc4O)C=C3C)nc2n1
4,18.5,Cc1nc(NC(=O)C2CC(=O)N(c3n[nH]c4cc(Br)ccc34)C2)sc1C (stereo unspecified)
5,5.7,CNC(=O)C1=C(C)NC(Nc2nc3ccccc3o2)=NC1c1[nH]ncc1Cl (stereo unspecified)
6,> 30,COc1cc(=O)n2c(c1C(=O)N(C)Cc1cscn1)CCN(C(=O)c1ccc(C)cc1C)CC2
7,> 30,CCCN1CNc2c(c(=O)[nH]c(=S)n2Cc2ccc(OC)c(OC)c2)C1
8,5.8,Cc1ccc(S(=O)(=O)Nc2cnccc2C(=O)Nc2nc(-c3cccc(C)c3)cs2)cc1
9,7.68,CCCCn1cc2c(c1-c1ccc(Br)cc1)c(=O)n(C)c(=O)n2C
10,15,Cc1ccc(-c2cc(C(=O)Nc3ccc(S(=O)(=O)Nc4ccc(C#N)cc4)cc3)c3ccccc3n2)cc1C
11,> 30,CC(=O)Nc1nc(C)c(-c2ccc(Cl)c(S(=O)(=O)NCCO)c2)s1
12,9.38,O=C1CCCC2=C1C(c1ccccc1Cl)N=C(Nc1nc3ccccc3o1)N2 (stereo unspecified)
13,> 30,CC[C@H]1CN2CCc3cc(OC)c(OC)cc3[C@@H]2C[C@@H]1C[C@H]1NCCc2cc(OC)c(OC)cc21
14,> 30,C=CC(=O)N1CCCN(c2cc(NCCC(=O)O)nc(-c3ccccn3)n2)CC1
15,> 30,Clc1ccc(C2(c3ccc(-c4cn[nH]c4)cc3)CCNCC2)cc1
16,> 30,COc1ccc(N2Cc3cccc(C(=O)Nc4ccc(C(C)C)cc4)c3C2=O)cc1
17,6.7,COc1cccc(CNc2ccc(S(=O)(=O)Nc3ccccc3)cc2)c1O
18,> 30,Cc1cccc(-n2ccc(=O)c(C(=O)Nc3ccc(S(=O)(=O)Nc4nccs4)cc3)n2)c1

# More lines, now with the values behind:
row,Compound,half-life [min]
1,Cc1ccc(S(=O)(=O)Nc2ccccc2C(=O)Nc2ccc(-c3ccccc3)nn2)cc1,4
2,c1ccc(-c2cn[nH]c2)cc1,13.1
3,Cc1nc2sccn2c(=O)c1S(=O)(=O)Nc1ccc(N2CCN(S(C)(=O)=O)CC2)cc1,> 30
4,NC1CCN(c2nc(-c3ccc(Br)cc3)cs2)CC1,> 30
5,N#Cc1nc(-c2cccc3ccccc23)oc1Nc1ccccc1,> 30
6,COc1ccc(CN2CCc3c(c(=O)n4ncc(C(=O)N5CCN(c6ccccc6OC)CC5)c4n3C)C2)cc1,1.97
7,CC(=O)N1CCN(c2ccc(OCc3nn(C)c(C)c3-c3cccc4c(CCCOc5cccc6ccccc56)c(C(=O)O)n(Cc5cccnc5)c34)cc2)CC1,15
8,O=[N+]([O-])c1ccc(CNc2ccc([S+](=O)([O-])Nc3nccs3)cc2)c(O)c1,13
9,NC(=O)C1CCN(c2nc(-c3cccc(C(F)(F)F)c3)cs2)CC1,1.99
10,NC(=O)C1CCN(c2nc(-c3ccc(Oc4ccccc4)cc3)cs2)CC1,18.5
11,COc1ccc(-n2c(C)cc(C3=NNC(=NC4CC4)SC3)c2C)cc1,11.8
12,CCn1c(=NC(=O)c2ccc(S(=O)(=O)N3CCCCC3)cc2)sc2cccc(OC)c21,9.5
13,CCOc1ccc(CCNC(=O)c2cc3cccnc3n2Cc2cccc(C)n2)cc1OCC,1.7
14,Cc1ccccc1OCC(O)CO (stereo unspecified),> 30
15,Oc1ccc(CNc2ccc(C(F)(F)F)cc2F)c2cccnc12,5.53
16,Cc1ccc(C2=CSC(NC(=O)CSc3nncn3C)=NN2)cc1,1.8
17,Cc1cc(SCc2sc(-c3ccc(C(F)(F)F)c(F)c3)nc2C)ccc1OCC(=O)O,21
18,Cc1cc(-c2nnc3n2CCCCC3)c(C)n1-c1ccccc1,3.27
19,Cc1nc(N2CCN(c3ccccn3)CC2)c2c(C)c(C(=O)Nc3ccc(F)cc3Cl)sc2n1,10.2
20,O=C(Nc1ccc(F)c(C(F)(F)F)c1)Nc1nnc(-c2ccncc2)s1,> 30
21,Cc1ccccc1S(=O)(=O)N1CCCC(CCC(=O)NCCN(C)C2CCCCC2)C1 (stereo unspecified),2.16
22,CNC(=O)c1ccc(-c2cnc3cnc(C(=O)N(C)c4ccc(Cl)cc4)cn23)cc1,> 30

row,Compound,half-life [min]
1,COc1ccc(Nc2cc(C)nc(-n3nc(C)cc3C)n2)cc1Cl,17.7
2,CCCc1ccc(C(=O)NC(=O)c2ccccc2O)cc1,2.37
3,Cc1ccc(S(=O)(=O)Nc2cnccc2C(=O)Nc2nc(-c3cccnc3)cs2)cc1,7.7
4,CCN1CCc2c(sc(NC(=O)Nc3ccc(Cl)c(Cl)c3)c2C(N)=O)C1,> 30
5,O=C(Nc1ccc2oc(-c3cccnc3)nc2c1)c1ccc(-c2ccccc2)o1,14.4
6,COc1ccc(C2Nc3ccccc3C(=O)N2Cc2ccco2)cc1COc1c(C)cc(NC(C)=O)cc1C (stereo unspecified),1.6
7,NC(=O)C1CCN(c2ncc(-c3ccc4c(c3)OCO4)s2)CC1,7.65
8,CN(C)c1cccc(-c2cc(N3CCC(C(N)=O)CC3)ncn2)c1,21.1
9,Clc1cccc(Nc2nc(-c3ccncc3)nc3ccccc23)c1,7.7
10,Nc1ccc(S(=O)(=O)Nc2cnccc2C(=O)Nc2nc(-c3ccccc3)cs2)cc1,25
11,Cc1ccc(-c2cc3c(nn2)-c2ccccc2C3=O)cc1,3.4
12,COc1ccc(C2c3c(ncn(CCN4CCOCC4)c3=N)Oc3ccc4ccccc4c32)cc1OC (stereo unspecified),3.6
13,C[C@H]1[C@@H](CCC(=O)Nc2ccc(F)cc2)O[C@@H]2O[C@]3(C)CC[C@@H]4[C@H](C)CC[C@@H]1[C@@]24OO3,2
14,CC(C)C[C@H]1C(=O)N2CCC[C@H]2[C@]2(O)O[C@](NC(=O)[C@@H]3C=C4c5cccc6[nH]c(Br)c(c56)C[C@H]4N(C)C3)(C(C)C)C(=O)N12,1.59
15,Cc1cc(C(=O)Nc2nnc(C3CCCCC3)s2)cs1,7.1
16,CC(=O)c1c(C)[nH]c(C(=O)Nc2cccc([S+](=O)([O-])N3CC[C@@H](F)C3)c2)c1C,3.2
17,Cn1cnc(-c2nccc3c(=O)[nH]c(OCCCC(F)(F)F)nc23)c1,16.5
18,Cc1cccc2c1NC(=O)/C2=C/c1cc(Cl)c(O)c(Cl)c1,26
19,Cc1ccc(S(=O)(=O)Nc2cnccc2C(=O)Nc2nc(-c3cccc(Cl)c3)cs2)cc1,> 30
20,CN(C)CCOc1ccc(C(=C(CCCl)c2ccccc2)c2ccccc2)cc1,> 30
21,COc1cc2c(cc1Oc1cccc(N(C)C)c1)NC(=O)C21CCN(c2cnccn2)CC1,1.77
22,CC(C)c1ccc(-n2ncc3c(=O)n(CC(=O)Nc4cc(F)ccc4Cl)cnc32)cc1,20

row,Compound,half-life [min]
1,CC(C)(O)Cn1c(NC(=O)c2ccc(-c3cn[nH]c3)s2)nc2cc(CN3CCOCC3)ccc21,14
2,Oc1ccc2[nH]cc(CCCCN3CC=C(c4ccccc4)CC3)c2c1,> 30
3,CN(C)c1cccc(-c2cnc(N3CCC(c4ncc[nH]4)CC3)s2)c1,4.63
4,O=C(Oc1ccc[nH]c1=O)c1cc([N+](=O)[O-])cc([N+](=O)[O-])c1,1.46
5,O=C1Nc2ccccc2/C1=C/c1cccc(C(=O)O)c1,> 30
6,Cc1cc(-c2nnc3n2CCCCC3)c(C)n1-c1cccc(C(F)(F)F)c1,1.9
7,COc1ccc(Cn2c(C(=O)O)c(CNCc3cccc(OC)c3)c3ccc(C)cc32)cc1,11.6
8,COc1ccc(-n2nc(C3CCCN(C(=O)Nc4ccccc4)C3)[nH]c2=O)cc1 (stereo unspecified),> 30
9,NC(=O)c1cnc(N[C@@H]2CCCC[C@@H]2N)nc1Nc1cccc(-n2nccn2)c1,> 30
10,COc1cccc(CNC(=O)CCCn2nc(C)c3c(C)n(-c4ccc(C)cc4)nc3c2=O)c1OC,1.07
11,CN1C(=O)c2ccccc2[S@](=O)c2ccc(C(=O)NCc3cccnc3)cc21,> 30
12,COCCn1ccc2c(C3=CCOCC3)nc(-c3cccc(NC(C)=O)c3)cc21,> 30
13,Cc1ccccc1C(=O)N1CCc2cc(-c3nc(NC(=O)Cc4ccc5c(c4)OCO5)sc3C)ccc21,15.5
14,Nc1nc2c(s1)C(c1ccccc1)CC(=O)N2 (stereo unspecified),> 30
15,Nc1c(-c2ccncc2)cc[nH]c1=O,> 30
16,O=C(CNC(=O)c1cnccn1)NC1CCCc2c1[nH]c1ccc(Cl)cc21 (stereo unspecified),> 30
17,O=C(Nc1nc(-c2ccccc2)cs1)c1ccncc1NS(=O)(=O)c1cccs1,12
18,CCc1ccccc1-n1c(SCC(=O)Nc2ccc(C)cc2)nc2n[nH]c(C)c2c1=N,1.25
19,COc1ccc(C(=O)Nc2nc(-c3ccccc3)cs2)c(OC)c1,18
20,CC1=C(C(=O)Nc2ccccc2Cl)C(c2ccccc2Br)N=C(Nc2nc3ccccc3o2)N1 (stereo unspecified),> 30
